Data reported in US9737535B2, “Methods for treating cancer using TOR kinase inhibitor combination therapy comprising administering substituted pyrazino[2,3-b]pyrazines” (Signal Pharmaceuticals, LLC, priority 2014, dated 2017).

Columns and labels:
[1] = system: T47-D; test: Anti-proliferation assay with +JQ1, Chalice synergy score; type: cell-based, human; settings: combination with +JQ1, average
Description: (§1) Cells were thawed from a liquid nitrogen preserved state.
(§2) The calculation for synergy score is provided below.
(§3) If T≧V0:100*[1−(T−V0)/(V−V0)]
(§4) Cells were grown, treated and analyzed as described above, and synergy was calculated using the Chalice Software (Zalicus, Inc., Cambridge Mass.), described above. Cell lines used included T47D (human ductal breast epithelial tumor cell line), MCF (adenocarcinoma breast cancer cell line), MDA-MM468 (adenocarcinoma breast cancer cell line), HCC-70 (carcinoma, ductal breast cancer cell line), SKBR-3 (adenocarcinoma breast cancer cell line), MM-453 (adenocarcinoma breast cancer cell line).

[2] = system: cancer cell lines (T47D, MCF, MDA-MM468, HCC-70, SKBR-3, MM-453); test: Anti-proliferation assay with +JQ1, cancer cell lines overall; type: cell-based; settings: treatment with +JQ1
Description: as §4

[3] = system: MM-468; test: Anti-proliferation assay with +JQ1, Chalice synergy score; type: cell-based; settings: combination with +JQ1, average
Description: as §1, §2, §3, §4

[4] = system: MM-453; test: as above; type: cell-based; settings: combination with +JQ1, average
Description: as §1, §2, §3, §4

[5] = system: MCF-7; test: as above; type: cell-based; settings: combination with +JQ1, average
Description: as §1, §2, §3, §4

[6] = system: HCC-70; test: as above; type: cell-based; settings: combination with +JQ1, average
Description: as §1, §2, §3, §4

[7] = system: SKBR-3; test: as above; type: cell-based; settings: combination with +JQ1, average
Description: as §1, §2, §3, §4

[8] = system: breast cancer cell line panel; test: Anti-proliferation assay, seventeen breast cancer cell line panel; type: cell-based; settings: single agent, cell lines where the GI50 reached inhibition levels of greater than fifty percent, read-out: median GI50
Excerpt: Cells were thawed from a liquid nitrogen preserved state. […] After seventy-two hours, […] developed for endpoint analysis using ATPLite. […] The calculation for synergy score is provided below. […] Compound 1 had varying activity across the seventeen cell line panel.

[9] = system: caspase 3/7 activation in NCI-H441 cells; test: Caspase-Glo 3/7 assay; type: cell-based; settings: 24 hours post-treatment, normalized to DMSO control, combination at 1:1
Description: Cell lines were maintained in the growth medium recommended by ATCC (American Type Culture Collection). […] The compounds were serially diluted in DMSO from the highest concentration of 30 μM (single compounds and in combination with constant a constant ratio of 1:1). […] The percentage of induction of apoptosis was normalized to DMSO control (no compound).

GI50 [8]	SMILES	Chalice Calculated Synergy Scores, Averages [1]	Synergism [2]	Chalice Calculated Synergy Scores, Averages [3]	Chalice Calculated Synergy Scores, Averages [4]	Chalice Calculated Synergy Scores, Averages [5]	Chalice Calculated Synergy Scores, Averages [6]	Chalice Calculated Synergy Scores, Averages [7]	% Caspase activation Mean (n = 3) ([9]; 0.1 μM)	% Caspase activation Mean (n = 3) ([9]; 0.3 μM)	% Caspase activation Mean (n = 3) ([9]; 1 μM)	% Caspase activation Mean (n = 3) ([9]; 3 μM)	% Caspase activation Mean (n = 3) ([9]; 10 μM)	% Caspase activation Mean (n = 3) ([9]; 30 μM)
140 nM	CCN1C(=O)CNc2ncc(-c3ccc(-c4nc[nH]n4)nc3C)nc21 [Compound 1, 1-ethyl-7-(2-methyl-6-(1H-1,2,4-triazol-3-yl)pyridin-3-yl)-3,4-dihydropyrazino[2,3-b]pyrazin-2(1H)-one]	8.74	Synergism was observed	17.26	16.37	7.37	12.05	9.59	–	–	–	–	–	–
–	CO[C@H]1CC[C@H](N2C(=O)CNc3ncc(-c4ccc(C(C)(C)O)nc4)nc32)CC1 [Compound 2, 7-(6-(2-hydroxypropan-2-yl)pyridin-3-yl)-1-((1r,4r)-4-methoxycyclohexyl)-3,4-dihydropyrazino-[2,3-b]pyrazin-2(1H)-one]	4.02	Synergism was observed	11.58	7.03	2.07	5.98	6.14	69.9%	66.4%	67.7%	77.7%	80%	85.5%
